Data: ChEMBL document CHEMBL3774345, “Synthesis of new diarylamides with pyrimidinyl pyridine scaffold and evaluation of their anti-proliferative effect on cancer cell lines” (Bioorg Med Chem Lett, 2016)

Assays:
[1] = Cytotoxicity against human MOLT4 cells after 24 hrs by SRB assay; assay type: functional; conditions: MOLT-4, 24 h
[2] = Cytotoxicity against human HCT15 cells assessed as cell growth at 10^-6 M after 24 hrs by SRB assay; assay type: functional; conditions: HCT-15, 24 h, read-out: Activity
[3] = Cytotoxicity against human TK10 cells assessed as cell growth at 10^-6 M after 24 hrs by SRB assay; assay type: functional; conditions: TK-10, 24 h, read-out: Activity
NCI-H23 = assay: Cytotoxicity against human NCI-H23 cells assessed as cell growth at 10^-5 M after 24 hrs by SRB assay; assay type: functional; conditions: NCI-H23, 24 h, read-out: Activity
A549 [4] = assay: Cytotoxicity against human A549 cells assessed as cell growth at 10^-5 M after 24 hrs by SRB assay; assay type: functional; conditions: A549, 24 h, read-out: Activity
MCF7 [5] = assay: Cytotoxicity against human MCF7 cells assessed as cell growth at 10^-4 M after 24 hrs by SRB assay; assay type: functional; conditions: MCF7, 24 h, read-out: Activity
MDA-MB-435 = assay: Cytotoxicity against human MDA-MB-435 cells assessed as cell growth at 10^-7 M after 24 hrs by SRB assay; assay type: functional; conditions: MDA-MB-435, 24 h, read-out: Activity
MCF7 [6] = assay: Cytotoxicity against human MCF7 cells after 24 hrs by SRB assay; assay type: functional; conditions: MCF7, 24 h
[7] = Cytotoxicity against human BT549 cells assessed as cell growth at 10^-6 M after 24 hrs by SRB assay; assay type: functional; conditions: BT-549, 24 h, read-out: Activity
SK-MEL-28 [8] = assay: Cytotoxicity against human SK-MEL-28 cells after 24 hrs by SRB assay; assay type: functional, cell-based; conditions: SK-MEL-28, 24 h
[9] = Cytotoxicity against human SF295 cells after 24 hrs by SRB assay; assay type: functional, cell-based; conditions: SF-295, 24 h
SK-MEL-28 [10] = assay: Cytotoxicity against human SK-MEL-28 cells assessed as cell growth at 10^-7 M after 24 hrs by SRB assay; assay type: functional; conditions: SK-MEL-28, 24 h, read-out: Activity
SR = assay: Cytotoxicity against human SR cells assessed as cell growth at 10^-6 M after 24 hrs by SRB assay; assay type: functional; conditions: read-out: Activity
[11] = Cytotoxicity against human HOP62 cells assessed as cell growth at 10^-8 M after 24 hrs by SRB assay; assay type: functional; conditions: HOP-62, 24 h, read-out: Activity
[12] = Cytotoxicity against human Hs 578T cells assessed as cell growth at 10^-4 M after 24 hrs by SRB assay; assay type: functional; conditions: read-out: Activity
[13] = Cytotoxicity against human UACC257 cells assessed as cell growth at 10^-8 M after 24 hrs by SRB assay; assay type: functional; conditions: UACC-257, 24 h, read-out: Activity
SK-MEL-2 = assay: Cytotoxicity against human SK-MEL-2 cells assessed as cell growth at 10^-7 M after 24 hrs by SRB assay; assay type: functional; conditions: SK-MEL-2, 24 h, read-out: Activity
[14] = Cytotoxicity against human SF268 cells assessed as cell growth at 10^-4 M after 24 hrs by SRB assay; assay type: functional; conditions: SF-268, 24 h, read-out: Activity
786-0 [15] = assay: Cytotoxicity against human 786-0 cells assessed as cell growth at 10^-4 M after 24 hrs by SRB assay; assay type: functional; conditions: 786-0, 24 h, read-out: Activity
[16] = Cytotoxicity against human IGROV1 cells assessed as cell growth at 10^-8 M after 24 hrs by SRB assay; assay type: functional; conditions: IGROV-1, 24 h, read-out: Activity
[17] = Cytotoxicity against human HCT15 cells assessed as cell growth at 10^-4 M after 24 hrs by SRB assay; assay type: functional; conditions: HCT-15, 24 h, read-out: Activity
A549 [18] = assay: Cytotoxicity against human A549 cells assessed as cell growth at 10^-6 M after 24 hrs by SRB assay; assay type: functional; conditions: A549, 24 h, read-out: Activity
786-0 [19] = assay: Cytotoxicity against human 786-0 cells assessed as cell growth at 10^-5 M after 24 hrs by SRB assay; assay type: functional; conditions: 786-0, 24 h, read-out: Activity
M14 = assay: Cytotoxicity against human M14 cells assessed as cell growth at 10^-5 M after 24 hrs by SRB assay; assay type: functional; conditions: M14, 24 h, read-out: Activity
[20] = Cytotoxicity against human OVCAR3 cells assessed as cell growth at 10^-6 M after 24 hrs by SRB assay; assay type: functional; conditions: OVCAR-3, 24 h, read-out: Activity
[21] = Cytotoxicity against human LOXIMVI cells after 24 hrs by SRB assay; assay type: functional, cell-based; conditions: LOX IMVI
[22] = Cytotoxicity against human HCT116 cells assessed as cell growth at 10^-4 M after 24 hrs by SRB assay; assay type: functional; conditions: HCT-116, 24 h, read-out: Activity
NCI-H460 = assay: Cytotoxicity against human NCI-H460 cells assessed as cell growth at 10^-6 M after 24 hrs by SRB assay; assay type: functional; conditions: NCI-H460, 24 h, read-out: Activity
NCI-H322M = assay: Cytotoxicity against human NCI-H322M cells assessed as cell growth at 10^-5 M after 24 hrs by SRB assay; assay type: functional; conditions: read-out: Activity
[23] = Cytotoxicity against human SF539 cells after 24 hrs by SRB assay; assay type: functional, cell-based; conditions: SF-539, 24 h
[24] = Cytotoxicity against human MOLT4 cells assessed as cell growth at 10^-7 M after 24 hrs by SRB assay; assay type: functional; conditions: MOLT-4, 24 h, read-out: Activity
EKVX = assay: Cytotoxicity against human EKVX cells assessed as cell growth at 10^-6 M after 24 hrs by SRB assay; assay type: functional; conditions: read-out: Activity
[25] = Cytotoxicity against human HCT15 cells assessed as cell growth at 10^-5 M after 24 hrs by SRB assay; assay type: functional; conditions: HCT-15, 24 h, read-out: Activity
[26] = Cytotoxicity against human HCT116 cells after 24 hrs by SRB assay; assay type: functional; conditions: HCT-116, 24 h
[27] = read-out: LC50 (the source's name)
[28] = read-out: pLC50 (the source's name) (converted)

Q: Which GI50 ([1]; read-out: GI50) does the source give for `O=C(Nc1cc(-c2cccnc2)nc(NCCCN2CCOCC2)n1)c1cc(Br)cc(C(F)(F)F)c1` here?
A: 3.63 µM

Q: And the CC50 [1, 27]?
A: 59.6 µM

Q: What about the TGI ([1]; read-out: TGI) of the same compound?
A: 13.1 µM

Q: And the GI50 ([1]; read-out: pGI50 (converted))?
A: 3.63 µM

Q: And the CC50 [1, 28]?
A: 60.3 µM

Q: What about the TGI ([1]; read-out: pTGI (converted)) of the same compound?
A: 13.2 µM

Q: And the growth at 1 µM [2]?
A: 82%

Q: What about the growth at 1 µM [3] of the same compound?
A: 88%

Q: And the growth at 10 µM (NCI-H23)?
A: 18%

Q: And the growth at 10 µM (A549 [4])?
A: 51%

Q: What about the growth at 100 µM (MCF7 [5]) of the same compound?
A: -75%

Q: And the growth at 0.1 µM (MDA-MB-435)?
A: 92%

Q: What about the GI50 (MCF7 [6]; read-out: GI50) of the same compound?
A: 2.17 µM

Q: And the CC50 (MCF7 [6]; [27])?
A: 44.8 µM

Q: And the TGI (MCF7 [6]; read-out: TGI)?
A: 9.22 µM

Q: What about the GI50 (MCF7 [6]; read-out: pGI50 (converted)) of the same compound?
A: 2.24 µM

Q: What about the CC50 (MCF7 [6]; [28]) of the same compound?
A: 44.7 µM

Q: What about the TGI (MCF7 [6]; read-out: pTGI (converted)) of the same compound?
A: 9.12 µM

Q: What about the growth at 1 µM [7] of the same compound?
A: 83%

Q: What about the IC50 (SK-MEL-28 [8]) of the same compound?
A: 1.73 µM

Q: What about the GI50 (SK-MEL-28 [8]; read-out: GI50) of the same compound?
A: 1.73 µM

Q: And the CC50 (SK-MEL-28 [8]; [27])?
A: 7.02 µM

Q: And the TGI (SK-MEL-28 [8]; read-out: TGI)?
A: 3.48 µM

Q: And the GI50 (SK-MEL-28 [8]; read-out: pGI50 (converted))?
A: 1.74 µM

Q: And the CC50 (SK-MEL-28 [8]; [28])?
A: 7.08 µM

Q: What about the TGI (SK-MEL-28 [8]; read-out: pTGI (converted)) of the same compound?
A: 3.47 µM

Q: What about the GI50 ([9]; read-out: GI50) of the same compound?
A: 1.94 µM

Q: What about the CC50 [9, 27] of the same compound?
A: 7.97 µM

Q: And the TGI ([9]; read-out: TGI)?
A: 3.93 µM

Q: What about the GI50 ([9]; read-out: pGI50 (converted)) of the same compound?
A: 1.95 µM

Q: And the CC50 [9, 28]?
A: 7.94 µM

Q: What about the TGI ([9]; read-out: pTGI (converted)) of the same compound?
A: 3.89 µM

Q: What about the growth at 0.1 µM (SK-MEL-28 [10]) of the same compound?
A: 91%

Q: And the growth at 1 µM (SR)?
A: 85%

Q: And the growth at 0.01 µM [11]?
A: 94%

Q: What about the growth at 100 µM [12] of the same compound?
A: -35%

Q: And the growth at 0.01 µM [13]?
A: 92%

Q: What about the growth at 0.1 µM (SK-MEL-2) of the same compound?
A: 95%

Q: What about the growth at 100 µM [14] of the same compound?
A: -88%

Q: And the growth at 100 µM (786-0 [15])?
A: -87%

Q: And the growth at 0.01 µM [16]?
A: 103%

Q: And the growth at 100 µM [17]?
A: -96%

Q: What about the growth at 1 µM (A549 [18]) of the same compound?
A: 119%

Q: And the growth at 10 µM (786-0 [19])?
A: -80%

Q: And the growth at 10 µM (M14)?
A: -80%

Q: What about the growth at 1 µM [20] of the same compound?
A: 100%

Q: And the IC50 [21]?
A: 1.62 µM

Q: What about the GI50 ([21]; read-out: GI50) of the same compound?
A: 1.62 µM

Q: And the CC50 [21, 27]?
A: 5.79 µM

Q: And the TGI ([21]; read-out: TGI)?
A: 3.06 µM

Q: And the GI50 ([21]; read-out: pGI50 (converted))?
A: 1.62 µM

Q: And the CC50 [21, 28]?
A: 5.75 µM

Q: And the TGI ([21]; read-out: pTGI (converted))?
A: 3.09 µM

Q: And the growth at 100 µM [22]?
A: -88%

Q: And the growth at 1 µM (NCI-H460)?
A: 99%

Q: And the growth at 10 µM (NCI-H322M)?
A: 19%

Q: And the GI50 ([23]; read-out: GI50)?
A: 1.67 µM

Q: What about the CC50 [23, 27] of the same compound?
A: 7.2 µM

Q: What about the TGI ([23]; read-out: TGI) of the same compound?
A: 3.47 µM

Q: And the GI50 ([23]; read-out: pGI50 (converted))?
A: 1.66 µM

Q: And the CC50 [23, 28]?
A: 7.24 µM

Q: And the TGI ([23]; read-out: pTGI (converted))?
A: 3.47 µM

Q: What about the growth at 0.1 µM [24] of the same compound?
A: 95%

Q: And the growth at 1 µM (EKVX)?
A: 76%

Q: And the growth at 10 µM [25]?
A: -32%

Q: And the GI50 ([26]; read-out: GI50)?
A: 2.09 µM

Q: What about the CC50 [26, 27] of the same compound?
A: 13.7 µM

Q: What about the TGI ([26]; read-out: TGI) of the same compound?
A: 4.81 µM

Q: What about the GI50 ([26]; read-out: pGI50 (converted)) of the same compound?
A: 2.09 µM

Q: And the CC50 [26, 28]?
A: 13.8 µM

Q: What about the TGI ([26]; read-out: pTGI (converted)) of the same compound?
A: 4.79 µM
